Key:
[1] = test system: Pseudomonas aeruginosa (ATCC27853); assay: Effect of alternate divalent cations on ATP extraction and detection; format: cell-based; details: high (20 mM) divalent cation concentration; approximately 1×10^6 cells per well
Protocol: To evaluate the effects of alternate divalent cations on ATP extraction and detection at low (0.2 mM) and high (20 mM) divalent cation concentrations, Pseudomonas aeruginosa (ATCC27853) was grown in Mueller Hinton II (MH II) Broth at 37° C. overnight. The overnight culture was diluted 50-fold in fresh MH II Broth and then incubated for several hours to reach log phase. Cells were diluted to approximately 1×10^6 cells per well.

S. aureus ATCC 25923 = assay: Bioluminescent detection of bacterial growth as a function of antibiotic dose; format: cell-based; details: 19 hours of incubation at 37° C.; ATP detection assay
Protocol: Four bacterial strains were used to evaluate the relationship between microbial cell number and luminescence. Bacterial strains Escherichia coli (ATCC25922), Staphylococcus aureus (ATCC25923), Pseudomonas aeruginosa (ATCC27853) and Bacillus cereus (ATCC10987) were grown in Mueller Hinton II (MH II) Broth at 37° C. overnight. The overnight culture was diluted 50-fold in fresh MH II Broth and then incubated for several hours to reach log phase. Samples of the culture were serially diluted using MH II Broth in a 96-well plate. […] Luminescence was recorded on a Veritas™ Microplate Luminometer from Turner Biosystems (Sunnyvale, Calif.). S. aureus ATCC 25923 strain was grown in MH II Broth at 37° C. overnight. The overnight culture was diluted 100-fold in fresh MH II Broth and used as inoculum for the antimicrobial screen. Working stocks (50×) of LOPAC compounds and standard antibiotics were prepared in DMSO. Each well of the 96-well multiwell plate contained 245 μl of the inoculum and 5 μl of the 50× working stock. […] One hundred microliters of the culture was taken from each well, and the luciferase detection assay was performed as described in Example 9. Luminescence was measured using a Veritas™ Microplate Luminometer from Turner Biosystems (Sunnyvale, Calif.). […] Luminescence was recorded on a Veritas™ Microplate Luminometer from Turner Biosystems (Sunnyvale, Calif.).

P. aeruginosa = details: CDTA added at t=12 minutes, final 20 mM, to mixture with 20 mM MgCl2
Protocol: Either 100 μl of bacterial culture or 100 μl of a 1×10^−9 M ATP stock (control) was added to 100 μl of the reconstitution reagent and luminescence was measured periodically over a 35 minute time period. The microbial cultures were tested at approximately 10^6 cells per well. Additional CDTA was added at t=12 minutes to each of the samples (final concentration=20 mM CDTA).

Compound	effect on ATP detection (luminescence) [1]	also measured
[Cl][Mn][Cl] [Mn^2+, MnCl2]	impede ATP detection	–
Cc1onc(-c2ccccc2)c1C(=O)N[C@@H]1C(=O)N2[C@@H]1SC(C)(C)[C@@H]2C(=O)O [oxacillin]	–	relative percentage of RLU compared to the no-oxacillin control (S. aureus ATCC 25923): dose-dependent effect
[Ca+2].[Cl-].[Cl-] [Ca^2+, CaCl2]	impede ATP detection	–
O=C(O)CN(CC(=O)O)C1CCCCC1N(CC(=O)O)CC(=O)O (stereo not shown) [CDTA, 1,2-Cyclohexanedinitrilotetraacetic acid]	–	neutralization of inhibitory divalent cation effects on ATP detection (luminescence) (P. aeruginosa): capable of neutralizing the inhibitory effects of divalent cations

— US7422868B2, “Microbial ATP extraction and detection system” (Promega Corporation, priority 2004, dated 2008)
